Measured values taken from patent US10392368B2, “Pyrazolo and triazolo bicyclic compounds as JAK kinase inhibitors” (THERAVANCE BIOPHARMA R&D IP, LLC, priority 2017, dated 2019).

Key:
JAK3 = target: T1, JAK3 (Homo sapiens, UniProt P52333); assay: Biochemical JAK3 kinase assay (LanthaScreen); set-up: GST; purchased Life Technologies; details: for Ki: read-out: JAK 3 (pKi) (converted); for JAK3 (pKi)-JAK1 (pKi): selectivity: difference of pKi JAK3 and pKi JAK1
T1 sequence (P52333 1-1124): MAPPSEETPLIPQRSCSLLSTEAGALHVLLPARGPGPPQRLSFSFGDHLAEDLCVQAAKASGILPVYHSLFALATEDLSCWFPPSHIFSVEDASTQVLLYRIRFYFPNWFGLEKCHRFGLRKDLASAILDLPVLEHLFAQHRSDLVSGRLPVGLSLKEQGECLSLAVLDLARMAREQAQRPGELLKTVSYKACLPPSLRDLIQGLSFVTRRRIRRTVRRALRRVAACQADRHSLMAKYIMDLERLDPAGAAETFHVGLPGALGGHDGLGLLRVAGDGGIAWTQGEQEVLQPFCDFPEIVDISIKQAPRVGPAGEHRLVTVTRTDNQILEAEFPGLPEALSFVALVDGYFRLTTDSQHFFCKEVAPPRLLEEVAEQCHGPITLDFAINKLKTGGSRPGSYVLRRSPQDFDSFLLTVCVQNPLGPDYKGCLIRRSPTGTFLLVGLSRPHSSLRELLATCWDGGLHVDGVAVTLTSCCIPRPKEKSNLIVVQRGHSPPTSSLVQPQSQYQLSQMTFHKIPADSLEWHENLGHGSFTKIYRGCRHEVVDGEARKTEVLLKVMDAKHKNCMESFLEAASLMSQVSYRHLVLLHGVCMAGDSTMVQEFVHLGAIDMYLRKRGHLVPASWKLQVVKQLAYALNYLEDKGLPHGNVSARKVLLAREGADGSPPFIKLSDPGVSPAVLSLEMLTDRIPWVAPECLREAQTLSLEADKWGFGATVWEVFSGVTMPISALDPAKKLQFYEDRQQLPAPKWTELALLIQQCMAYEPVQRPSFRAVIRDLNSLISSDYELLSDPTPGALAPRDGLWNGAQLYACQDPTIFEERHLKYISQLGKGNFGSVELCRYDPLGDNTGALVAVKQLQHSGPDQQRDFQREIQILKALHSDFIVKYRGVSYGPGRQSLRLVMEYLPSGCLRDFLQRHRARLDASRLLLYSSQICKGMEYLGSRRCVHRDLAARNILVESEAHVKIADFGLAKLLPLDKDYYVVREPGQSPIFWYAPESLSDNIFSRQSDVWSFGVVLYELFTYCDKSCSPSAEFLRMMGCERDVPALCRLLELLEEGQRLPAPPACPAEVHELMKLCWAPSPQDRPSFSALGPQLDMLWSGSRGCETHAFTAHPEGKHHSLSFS
Protocol: (§1) A panel of four LanthaScreen JAK biochemical assays (JAK1, 2, 3 and Tyk2) were carried in a common kinase reaction buffer (50 mM HEPES, pH 7.5, 0.01% Brij-35, 10 mM MgCl2, and 1 mM EGTA). Recombinant GST-tagged JAK enzymes and a GFP-tagged STAT1 peptide substrate were obtained from Life Technologies.
(§2) Serially or discretely diluted compounds were pre-incubated with each of the four JAK enzymes and the substrate in white 384-well microplates (Corning) at ambient temperature for 1 h. ATP was subsequently added to initiate the kinase reactions in 10 μL total volume, with 1% DMSO. […] Kinase reactions were allowed to proceed for 1 hour at ambient temperature before a 10 μL preparation of EDTA (10 mM final concentration) and Tb-anti-pSTAT1 (pTyr701) antibody (Life Technologies, 2 nM final concentration) in TR-FRET dilution buffer (Life Technologies) was added. The plates were allowed to incubate at ambient temperature for 1 h before being read on the EnVision reader (Perkin Elmer). Emission ratio signals (520 nm/495 nm) were recorded and utilized to calculate the percent inhibition values based on DMSO and background controls.
(§3) For dose-response analysis, percent inhibition data were plotted vs. compound concentrations, and IC50 values were determined from a 4-parameter robust fit model with the Prism software (GraphPad Software). Results were expressed as pIC50 (negative logarithm of IC50) and subsequently converted to pKi (negative logarithm of dissociation constant, Ki) using the Cheng-Prusoff equation.

JAK1 = target: T2, JAK1 (Homo sapiens, UniProt P23458); assay: Biochemical JAK1 kinase assay (LanthaScreen); details: for Ki: read-out: JAK 1 (pKi) (converted)
T2 construct: GST; purchased Life Technologies
T2 sequence (P23458 whole entry): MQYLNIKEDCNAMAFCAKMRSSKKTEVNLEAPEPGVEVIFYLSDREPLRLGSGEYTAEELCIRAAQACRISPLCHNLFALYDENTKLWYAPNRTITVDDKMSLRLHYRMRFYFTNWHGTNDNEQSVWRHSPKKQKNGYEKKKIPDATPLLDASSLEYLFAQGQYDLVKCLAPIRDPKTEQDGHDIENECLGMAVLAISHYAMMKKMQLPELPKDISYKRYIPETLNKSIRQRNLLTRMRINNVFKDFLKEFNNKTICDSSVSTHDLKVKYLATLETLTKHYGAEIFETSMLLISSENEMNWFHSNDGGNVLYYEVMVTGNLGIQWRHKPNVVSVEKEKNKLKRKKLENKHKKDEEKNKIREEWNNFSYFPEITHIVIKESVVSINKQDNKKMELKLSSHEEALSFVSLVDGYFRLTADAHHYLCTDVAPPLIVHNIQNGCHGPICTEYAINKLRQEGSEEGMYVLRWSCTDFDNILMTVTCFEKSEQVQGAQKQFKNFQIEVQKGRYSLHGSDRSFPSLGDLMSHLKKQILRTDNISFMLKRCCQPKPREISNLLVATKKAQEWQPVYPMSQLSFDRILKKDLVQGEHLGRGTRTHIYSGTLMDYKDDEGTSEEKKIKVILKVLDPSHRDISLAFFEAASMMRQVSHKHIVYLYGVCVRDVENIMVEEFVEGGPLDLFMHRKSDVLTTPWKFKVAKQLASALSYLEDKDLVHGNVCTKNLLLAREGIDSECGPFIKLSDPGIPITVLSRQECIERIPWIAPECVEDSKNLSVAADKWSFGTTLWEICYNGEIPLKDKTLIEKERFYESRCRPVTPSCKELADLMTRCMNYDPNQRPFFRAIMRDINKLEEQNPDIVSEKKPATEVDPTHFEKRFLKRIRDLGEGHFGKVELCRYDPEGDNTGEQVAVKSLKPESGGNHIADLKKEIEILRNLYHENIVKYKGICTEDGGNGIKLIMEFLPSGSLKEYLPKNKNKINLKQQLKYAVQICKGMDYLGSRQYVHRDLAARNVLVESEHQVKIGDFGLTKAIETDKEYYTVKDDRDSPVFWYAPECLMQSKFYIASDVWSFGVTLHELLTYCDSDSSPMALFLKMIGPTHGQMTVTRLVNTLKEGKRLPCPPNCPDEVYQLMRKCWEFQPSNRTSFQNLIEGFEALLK
Protocol: as §1, §2, §3

[1] = test system: IL-2 stimulated pSTAT5 in Tall-1 T cells; assay: Cellular JAK3 potency assay: inhibition of IL-2 stimulated pSTAT5 in Tall-1 T cells; assay type: cell-based, human; details: for IC50: Homo sapiens, TALL-1, IL-2 stimulated pSTAT5 in Tall-1 T cells, read-out: Tall-1 (pIC50) (converted); for Tall-1 (pIC50): IL-2 stimulated pSTAT5 in Tall-1 T cells
Protocol: The potency of test compounds for inhibition of interleukin-2 (IL-2) stimulated STAT5 phosphorylation was measured in the Tall-1 human T cell line (DSMZ) using AlphaLisa. Because IL-2 signals through JAK3, this assay provides a measure of JAK3 cellular potency.
Compounds were serially diluted in DMSO and dispensed acoustically to empty wells. Assay media (phenol red-free DMEM (Life Technologies) supplemented with 10% FBS (ATCC)) was dispensed (4 μL/well) and plates shaken at 900 rpm for 10 mins. Cells were seeded at 45,000 cells/well in assay media (4 μL/well), and incubated at 37° C., 5% CO2 for 1 hour, followed by the addition of IL-2 (R&D Systems; final concentration 300 ng/ml) in pre-warmed assay media (4 μL) for 30 minutes. After cytokine stimulation, cells were lysed with 6 ul of 3× AlphaLisa Lysis Buffer (PerkinElmer) containing 1× PhosStop and Complete tablets (Roche). The lysate was shaken at 900 rpm for 10 minutes at room temperature (RT). Phosphorylated STAT5 was measured via the pSTAT5 AlphaLisa kit (PerkinElmer). Freshly prepared acceptor bead mixture was dispensed onto lysate (5 μL) under green filtered <100 lux light. Plates were shaken at 900 rpm for 2 mins, briefly spun down, and incubated for 2 hrs at RT in the dark. Donor beads were dispensed (5 μL) under green filtered <100 lux light. Plates were shaken at 900 rpm for 2 minutes, briefly spun down, and incubated overnight at RT in the dark.
To determine the inhibitory potency of test compounds in response to IL-2, the average emission intensity of beads bound to pSTAT5 was measured in a human T cell line. IC50 values were determined from analysis of the inhibition curves of signal intensity versus compound concentration. Data are expressed as pIC50 (negative decadic logarithm IC50) values (mean±standard deviation).

In the case of `C=CC(=O)N1CC(F)(COc2nc(-c3ccc(O)cc3)cc3[nH]ncc23)C1` [Compound 3-90], the Ki (JAK3) is reported as < 0.0001 µM, the “JAK3 (pKi)-JAK1 (pKi)” value (JAK3) is reported as “B (a value of 2.3 to 3)” and the Ki (JAK1) is reported as 0.01 to 0.1 µM. The IC50 [1] was < 0.0316 µM.
`O=C(/C=C/CN1CCC1)N1CC(COc2cc(-c3ccc(O)cc3)cc3[nH]ncc23)C1` [Compound 3-123] was tested, and the Ki (JAK3) was < 0.0001 µM, the “JAK3 (pKi)-JAK1 (pKi)” value (JAK3) was “A (a value of 3 or above)” and the Ki (JAK1) was > 0.1 µM. For the same molecule, the IC50 [1] was 0.2 to 1 µM.
In the case of `O=C(/C=C/CN1CCCC1)N1CC(COc2cc(-c3ccc(O)cc3)cc3[nH]ncc23)C1` [Compound 3-124], the Ki (JAK3) is reported as 0.0001 to 0.001 µM, the “JAK3 (pKi)-JAK1 (pKi)” value (JAK3) is reported as “A (a value of 3 or above)” and the Ki (JAK1) is reported as > 0.1 µM. For the same molecule, the IC50 [1] was 0.0316 to 0.2 µM.
`O=C(/C=C/CN1CCOCC1)N1CC(COc2cc(-c3ccc(O)cc3)cc3[nH]ncc23)C1` [Compound 3-129] was tested, and the Ki (JAK3) was 0.0001 to 0.001 µM, the “JAK3 (pKi)-JAK1 (pKi)” value (JAK3) was “A (a value of 3 or above)” and the Ki (JAK1) was > 0.1 µM. For the same molecule, the IC50 [1] was 0.2 to 1 µM.
In the case of `O=C(/C=C/CN1CCSCC1)N1CC(COc2cc(-c3ccc(O)cc3)cc3[nH]ncc23)C1` [Compound 3-130], the Ki (JAK3) is reported as 0.0001 to 0.001 µM, the “JAK3 (pKi)-JAK1 (pKi)” value (JAK3) is reported as “A (a value of 3 or above)” and the Ki (JAK1) is reported as > 0.1 µM. The IC50 [1] was 0.0316 to 0.2 µM.
With `COC[C@H]1CCN(C/C=C/C(=O)N2CC(COc3cc(-c4ccc(O)cc4)cc4[nH]ncc34)C2)C1` [Compound 3-134] the Ki (JAK3) was 0.0001 to 0.001 µM, the “JAK3 (pKi)-JAK1 (pKi)” value (JAK3) was “A (a value of 3 or above)” and the Ki (JAK1) was > 0.1 µM. The IC50 [1] was 0.0316 to 0.2 µM.
With `C=CC(=O)N1CC(CNc2cc(-c3ccc(O)cc3)cc3[nH]ncc23)C1` [Compound 4-3] the “JAK 3 (pKi)” value (JAK3) was “B (a pKi value between 9 and 10 (Ki between 1 nM and 0.1 nM))”, the “JAK3 (pKi)-JAK1 (pKi)” value (JAK3) was “B (a value of 2.3 to 3)” and the “JAK 1 (pKi)” value (JAK1) was “E (a pKi value of 7 or below (Ki of 100 nM or above))”. For the same molecule, the “Tall-1 (pIC50)” value [1] was “B (a pIC50 value between 6.7 (included) and 7.5 (IC50 between 200 nM and 32 nM))”.
In the case of `CN(C)C/C=C/C(=O)N1CC(CN(C)c2nc(-c3ccc(O)cc3)cc3[nH]ncc23)C1` [Compound 4-8], the “JAK 3 (pKi)” value (JAK3) is reported as “B (a pKi value between 9 and 10 (Ki between 1 nM and 0.1 nM))”, the “JAK3 (pKi)-JAK1 (pKi)” value (JAK3) is reported as “B (a value of 2.3 to 3)” and the “JAK 1 (pKi)” value (JAK1) is reported as “E (a pKi value of 7 or below (Ki of 100 nM or above))”. The “Tall-1 (pIC50)” value [1] was “B (a pIC50 value between 6.7 (included) and 7.5 (IC50 between 200 nM and 32 nM))”.
`CN(C)C/C=C/C(=O)N1CC(Oc2cc(-c3ccc(O)cc3)cc3[nH]ncc23)C1` [Compound 5-1] was tested, and the “JAK 3 (pKi)” value (JAK3) was “B (a pKi value between 9 and 10 (Ki between 1 nM and 0.1 nM))”, the “JAK3 (pKi)-JAK1 (pKi)” value (JAK3) was “A (a value of 3 or above)” and the “JAK 1 (pKi)” value (JAK1) was “E (a pKi value of 7 or below (Ki of 100 nM or above))”. For the same molecule, the “Tall-1 (pIC50)” value [1] was “C (a pIC50 value between 6 and 6.7 (IC50 between 1 μM and 200 nM))”.
In the case of `CN(C)C/C=C/C(=O)N1CC(N(C)c2cc(-c3ccc(O)cc3)cc3[nH]ncc23)C1` [Compound 5-8], the “JAK 3 (pKi)” value (JAK3) is reported as “B (a pKi value between 9 and 10 (Ki between 1 nM and 0.1 nM))”, the “JAK3 (pKi)-JAK1 (pKi)” value (JAK3) is reported as “A (a value of 3 or above)” and the “JAK 1 (pKi)” value (JAK1) is reported as “E (a pKi value of 7 or below (Ki of 100 nM or above))”. The “Tall-1 (pIC50)” value [1] was “C (a pIC50 value between 6 and 6.7 (IC50 between 1 μM and 200 nM))”.
